According to US8080660B2, “Metal complex glycogen synthase kinase 3 inhibitors” (The Trustees Of The University Of Pennsylvania, priority 2004, dated 2011):

Biological target: T1, GSK-3α (Homo sapiens, UniProt P49840)
T1 construct: purchased Upstate Biotechnology USA
Assay: GSK-3α kinase inhibition assay ([γ-32P]ATP phosphorylation of substrate)
Format: biochemical
Conditions: 20 μM ATP
Experimental: Protein kinases and substrates were purchased from Upstate Biotechnology USA, except for poly(Glu-Tyr 4:1) which was obtained from Sigma-Aldrich.
After 15 mins, the reaction was initiated by adding ATP to a final concentration of 20 μM, including approximately 0.04 μCi/μl [γ-^32P]ATP. Reactions were performed in a total volume of 25 μl. After 30 min, the reaction was terminated by spotting 17.5 μl on a circular P81 phosphocellulose paper (diameter 2.1 cm, Whatman) followed by washing four times (five minutes each wash) with 0.75% phosphoric acid and once with acetone. The dried P81 papers were transferred to a scintillation vial and 5 ml of scintillation cocktail were added and the counts per minute (CPM) determined with a Beckmann 6000 scintillation counter.

T1 sequence (P49840 whole entry): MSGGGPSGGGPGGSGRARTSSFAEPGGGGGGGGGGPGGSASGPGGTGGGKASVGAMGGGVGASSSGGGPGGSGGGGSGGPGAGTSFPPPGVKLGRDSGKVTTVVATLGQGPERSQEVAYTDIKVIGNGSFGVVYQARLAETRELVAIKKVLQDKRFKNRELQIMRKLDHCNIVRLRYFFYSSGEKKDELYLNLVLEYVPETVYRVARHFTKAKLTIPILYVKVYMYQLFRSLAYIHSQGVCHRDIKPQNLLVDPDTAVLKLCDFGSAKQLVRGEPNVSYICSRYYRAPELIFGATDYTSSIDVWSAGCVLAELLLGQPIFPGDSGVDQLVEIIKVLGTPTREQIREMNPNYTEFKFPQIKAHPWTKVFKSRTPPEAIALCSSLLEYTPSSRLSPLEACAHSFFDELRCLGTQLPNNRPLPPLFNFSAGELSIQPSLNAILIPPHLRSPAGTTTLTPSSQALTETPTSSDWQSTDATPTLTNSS

Work on `O=C1NC(=O)c2c1c1cccnc1c1[nH]c3ccccc3c21` [Compound 4] yielded an IC50 of 50 µM.
